Laboratory results reported in PMC9038752, “Molecular mechanisms of bifunctional vitamin D receptor agonist-histone deacetylase inhibitor hybrid molecules in triple-negative breast cancer” (Scientific Reports, 2022).

Biological target: T1, VDR (Mus musculus, UniProt P48281)
T1 construct: endogenous in cells; host or cells: 4TO7 and 4T1 mouse triple-negative breast cancer cells
T1 sequence (P48281 1-422): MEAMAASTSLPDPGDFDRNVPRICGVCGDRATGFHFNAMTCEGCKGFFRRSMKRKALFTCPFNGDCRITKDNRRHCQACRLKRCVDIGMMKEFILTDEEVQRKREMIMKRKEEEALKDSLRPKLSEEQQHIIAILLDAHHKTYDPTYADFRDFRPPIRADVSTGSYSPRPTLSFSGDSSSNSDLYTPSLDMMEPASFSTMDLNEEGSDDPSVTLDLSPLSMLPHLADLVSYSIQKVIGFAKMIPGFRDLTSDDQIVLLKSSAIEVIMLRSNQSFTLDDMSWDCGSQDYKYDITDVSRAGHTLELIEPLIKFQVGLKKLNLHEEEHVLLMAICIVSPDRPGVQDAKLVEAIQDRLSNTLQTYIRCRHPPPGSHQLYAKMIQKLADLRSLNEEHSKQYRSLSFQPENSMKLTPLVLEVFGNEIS
Assay: Cyp24a1 induction assay for VDR agonism in 4TO7 cells
Format: cell-based
Conditions: 24 h
Description: Figure 5 (a) and (b) Analysis of induced Cyp24a1 expression in 4TO7 (a) and 4T1 (b) cells to test for VDR agonism of DK-406 and heterocyclic analogues after 24 h treatment. c-e. Analysis of the cytotoxicity of hybrid compounds after 24 h using the MTGlo assay (see Methods for details) in 4TO7 (c), 4T1 (d) and MDA-MB-231 (e) cells. […] Each condition was compared to control. *: p ≤ 0.05, **: p ≤ 0.01, ***: p ≤ 0.001, ****: p ≤ 0.0001, ns: not significant.
As previously, we were interested in studying the efficacy of hybrids in models of TNBC. We used the 4T1 cell line[20] as well as the related TNBC cell line 4TO7, which was derived from the same mouse tumor as 4T1 cells in Balb/c mice[33]. 4TO7 cells readily form primary tumors. […] These lines also have the advantage that anti-tumor efficacy studies can be performed in Balb/c mice, which have intact immune systems. Compounds were initially tested for VDR agonist activity in 4TO7 cells by screening induction of the VDR target gene Cyp24a1. […] The pyridyl hybrids were then tested for efficacy in vitro in 4TO7 and 4T1 cells using an MT-Glo assay in which only viable cells can convert a precursor into a substrate for a luciferase bioluminescence assay (Fig. 5c,d; see Methods for details).
Mouse 4T07 cells and 4T01 cells were cultured in DMEM (319–005-CL; WISENT Inc.) supplemented with 10% heat-inactivated FBS. MB-MDA231 cells were cultured in Leibovitz’s L-15 medium with 10% heat-inactivated FBS in the absence of CO2.
RNA extraction was performed with the FavorPrep tissue total RNA mini kit (FAVORGEN Biotech Corporation—FATRK 001) as per manufacturer’s instructions. cDNA was obtained from 1 µg of RNA using 5X All-in-One RT Mastermix (Applied Biological Materials (abm) Inc.—G485) and diluted 5 times. qPCR was performed with BrightGreen 2X q-PCR MasterMix (abm—MasterMix-LR-XL) on a Roche LightCycler 96 system. Expression of targeted genes was normalized to 18S RNA.

SMILES: CCC(CC)(c1ccc(OCC(O)C(C)(C)C)c(C)c1)c1ccc(OCC(=O)NO)cn1 (centres unmarked) [AM-155]
- VDR agonist activity (Cyp24a1 induction): weakly potent VDR agonists

SMILES: CCC(CC)(c1ccc(OCC(O)C(C)(C)C)c(C)c1)c1ccc(OCCCC(=O)NO)cn1 (centres unmarked) [AM-171]
- VDR agonist activity (Cyp24a1 induction): weakly potent VDR agonists

SMILES: CCC(CC)(c1ccc(OCCCCCC(=O)NO)cc1)c1ccc(OCC(O)C(C)(C)C)c(C)n1 (centres unmarked) [AM-193]
- VDR agonist activity (Cyp24a1 induction): partial agonists
- potency in Cyp24a1 induction assay relative to DK-406: approximately tenfold

SMILES: CCC(CC)(c1ccc(C(=O)NCCCCCC(=O)NO)cc1)c1ccc(OCC(O)C(C)(C)C)c(C)c1 (centres unmarked) [DK-406]
- VDR agonist activity (Cyp24a1 induction): partial agonists
